{"source": "patent US10738035B2", "about": "“Hepatitis B antiviral agents” (Enanta Pharmaceuticals, Inc., priority 2015, dated 2020)"}
{"test_system": "hepatitis B virus (HBV)", "assay": "HepAD38 antiviral assay (viral product accumulation, EC50)", "conditions": "HePAD38, 120 h, read-out: HepAD38 EC50", "units": {"EC50": "µM"}, "protocol": "(§1) Briefly, cells are passaged upon attaining confluency in DMEM/F12 media in the presence of 10% FBS, Penn/Strep, 250 μg/mL G418, and 1 μg/ml tetracycline. Novel compounds are screened by first washing cells three times with PBS to remove tetracycline, and plating in 96 well plates at 35,000 cells/well. Compounds dissolved in DMSO are then diluted 1:200 into wells containing cells. Five days after compound addition, material is harvested for analysis.\nOn harvest day, virion DNA is obtained by lysing with Sidestep Lysis and Stabilization Buffer and then quantified via quantitative real time PCR. Commercially available ELISA kits are used to quantitate the viral proteins HBsAg (Alpco) or HbeAg (US Biological) by following the manufacturer's recommended protocol after diluting samples to match the linear range of their respective assays."}
{"smiles": "O=S(=O)(c1c(Cl)ccc2c(Nc3cc(F)c(F)c(F)c3)n[nH]c12)N1CCC(O)CC1", "note": "[Example 1]", "EC50": "> 10"}
{"smiles": "Cn1nc(NC(=O)Nc2cc(F)c(F)c(F)c2)cc1S(=O)(=O)N1CCC(O)CC1", "note": "[Example 2]", "EC50": "1 to 10"}
{"smiles": "Cn1nc(NC(=O)N2CCC(O)CC2)cc1C(=O)Nc1cc(F)c(F)c(F)c1", "note": "[Example 3]", "EC50": "< 1"}
{"smiles": "O=S(=O)(c1cc2oc(Nc3cc(F)c(F)c(F)c3)nc2cc1Cl)N1CCC(O)CC1", "note": "[Example 4]", "EC50": "1 to 10"}
{"smiles": "Cn1nc(NS(=O)(=O)C2CCC(O)CC2)cc1C(=O)Nc1cc(F)c(F)c(F)c1", "note": "(centres unmarked) [Example 5]", "EC50": "< 1"}
{"smiles": "Cn1c(NC(=O)N2CCC(O)CC2)cnc1C(=O)Nc1cc(F)c(F)c(F)c1", "note": "[Example 6]", "EC50": "> 10"}
{"smiles": "O=C(Nc1cc(F)c(F)c(F)c1)c1ccc(Cl)c(NC(=O)N2CCC(O)CC2)c1", "note": "[Example 7]", "EC50": "1 to 10"}
{"smiles": "Cn1nc(NC(=O)N2CCC(O)CC2)cc1-c1ncc(-c2cc(F)c(F)c(F)c2)[nH]1", "note": "[Example 8]", "EC50": "> 10"}
{"smiles": "O=C(Nc1cc(F)c(F)c(F)c1)c1cc(NC(=O)N2CCC(O)CC2)no1", "note": "[Example 9]", "EC50": "> 10"}
{"smiles": "Cn1cc(NC(=O)N2CCC(O)CC2)nc1C(=O)Nc1cc(F)c(F)c(F)c1", "note": "[Example 10]", "EC50": "> 10"}
{"smiles": "Cn1nc(NC(=O)N2CCC(O)CC2)c(Cl)c1C(=O)Nc1cc(F)c(F)c(F)c1", "note": "[Example 11]", "EC50": "1 to 10"}
{"smiles": "Cn1nc(NS(=O)(=O)N2CCC(OCc3ccccc3)CC2)cc1C(=O)Nc1cc(F)c(F)c(F)c1", "note": "[Example 12]", "EC50": "1 to 10"}
{"smiles": "Cn1nc(C(=O)Nc2cc(F)c(F)c(F)c2)cc1NC(=O)N1CCC(O)CC1", "note": "[Example 13]", "EC50": "> 10"}
{"smiles": "Cn1nc(NC(=O)C2CCC(O)CC2)cc1C(=O)Nc1cc(F)c(F)c(F)c1", "note": "(centres unmarked) [Example 14]", "EC50": "1 to 10"}
{"smiles": "Cn1nc(NC(=O)OCCO)cc1C(=O)Nc1cc(F)c(F)c(F)c1", "note": "[Example 15]", "EC50": "< 1"}
{"smiles": "Cn1nc(NC(=O)N2CCCCC2)cc1C(=O)Nc1cc(F)c(F)c(F)c1", "note": "[Example 16]", "EC50": "1 to 10"}
{"smiles": "Cn1nc(NC(=O)N2CCC(F)CC2)cc1C(=O)Nc1cc(F)c(F)c(F)c1", "note": "[Example 17]", "EC50": "1 to 10"}
{"smiles": "Cn1nc(NC(=O)N2CCC(F)(F)CC2)cc1C(=O)Nc1cc(F)c(F)c(F)c1", "note": "[Example 18]", "EC50": "1 to 10"}
{"smiles": "Cn1nc(NC(=O)N2CCC(C)(O)CC2)cc1C(=O)Nc1cc(F)c(F)c(F)c1", "note": "[Example 19]", "EC50": "1 to 10"}
{"smiles": "Cn1nc(NC(=O)N2CCOCC2)cc1C(=O)Nc1cc(F)c(F)c(F)c1", "note": "[Example 20]", "EC50": "1 to 10"}
{"smiles": "CN(CCO)C(=O)Nc1cc(C(=O)Nc2cc(F)c(F)c(F)c2)n(C)n1", "note": "[Example 21]", "EC50": "1 to 10"}
{"smiles": "CN(C(=O)Nc1cc(C(=O)Nc2cc(F)c(F)c(F)c2)n(C)n1)C1CC1", "note": "[Example 22]", "EC50": "> 10"}
{"smiles": "CN(Cc1ccccc1)C(=O)Nc1cc(C(=O)Nc2cc(F)c(F)c(F)c2)n(C)n1", "note": "[Example 23]", "EC50": "1 to 10"}
{"smiles": "COCCNC(=O)Nc1cc(C(=O)Nc2cc(F)c(F)c(F)c2)n(C)n1", "note": "[Example 24]", "EC50": "1 to 10"}
{"smiles": "CN(C)CCNC(=O)Nc1cc(C(=O)Nc2cc(F)c(F)c(F)c2)n(C)n1", "note": "[Example 25]", "EC50": "> 10"}
{"smiles": "Cn1nc(NC(=O)NCC2(C)CC2)cc1C(=O)Nc1cc(F)c(F)c(F)c1", "note": "[Example 26]", "EC50": "< 1"}
{"smiles": "Cn1nc(NC(=O)N(CCO)CCO)cc1C(=O)Nc1cc(F)c(F)c(F)c1", "note": "[Example 27]", "EC50": "> 10"}
{"smiles": "CN(C(=O)Nc1cc(C(=O)Nc2cc(F)c(F)c(F)c2)n(C)n1)C1CCCCC1", "note": "[Example 28]", "EC50": "< 1"}
{"smiles": "Cn1nc(NC(=O)N2CCC(O)C2)cc1C(=O)Nc1cc(F)c(F)c(F)c1", "note": "(centres unmarked) [Example 29]", "EC50": "1 to 10"}
{"smiles": "CCCN(C)C(=O)Nc1cc(C(=O)Nc2cc(F)c(F)c(F)c2)n(C)n1", "note": "[Example 30]", "EC50": "< 1"}
{"smiles": "CCCCNC(=O)Nc1cc(C(=O)Nc2cc(F)c(F)c(F)c2)n(C)n1", "note": "[Example 31]", "EC50": "1 to 10"}
{"smiles": "Cn1nc(NC(=O)NCCO)cc1C(=O)Nc1cc(F)c(F)c(F)c1", "note": "[Example 32]", "EC50": "1 to 10"}
{"smiles": "C=CCn1nc(NC(=O)N2CCC(O)CC2)cc1C(=O)Nc1cc(F)c(F)c(F)c1", "note": "[Example 33]", "EC50": "1 to 10"}
{"smiles": "Cn1nc(NC(=O)N2CCC(O)CC2)cc1C(=O)Nc1ccc(F)cc1", "note": "[Example 34]", "EC50": "1 to 10"}
{"test_system": "not listed separately", "assay": "Compound toxicity, ATPLite (CC50)", "conditions": "human, HepAD38 cells", "units": {"CC50 at 3 days": "µM"}, "protocol": "as §1\nCompound toxicity is evaluated by seeding cells at 15,000 cells/well and treating with compound as described above."}
{"smiles": "O=S(=O)(c1c(Cl)ccc2c(Nc3cc(F)c(F)c(F)c3)n[nH]c12)N1CCC(O)CC1", "note": "[Example 1]", "CC50 at 3 days": "> 30"}
{"smiles": "Cn1nc(NC(=O)Nc2cc(F)c(F)c(F)c2)cc1S(=O)(=O)N1CCC(O)CC1", "note": "[Example 2]", "CC50 at 3 days": "> 30"}
{"smiles": "Cn1nc(NC(=O)N2CCC(O)CC2)cc1C(=O)Nc1cc(F)c(F)c(F)c1", "note": "[Example 3]", "CC50 at 3 days": "> 30"}
{"smiles": "O=S(=O)(c1cc2oc(Nc3cc(F)c(F)c(F)c3)nc2cc1Cl)N1CCC(O)CC1", "note": "[Example 4]", "CC50 at 3 days": "< 10"}
{"smiles": "Cn1nc(NS(=O)(=O)C2CCC(O)CC2)cc1C(=O)Nc1cc(F)c(F)c(F)c1", "note": "(centres unmarked) [Example 5]", "CC50 at 3 days": "> 30"}
{"smiles": "Cn1c(NC(=O)N2CCC(O)CC2)cnc1C(=O)Nc1cc(F)c(F)c(F)c1", "note": "[Example 6]", "CC50 at 3 days": "> 10"}
{"smiles": "O=C(Nc1cc(F)c(F)c(F)c1)c1ccc(Cl)c(NC(=O)N2CCC(O)CC2)c1", "note": "[Example 7]", "CC50 at 3 days": "> 30"}
{"smiles": "Cn1nc(NC(=O)N2CCC(O)CC2)cc1-c1ncc(-c2cc(F)c(F)c(F)c2)[nH]1", "note": "[Example 8]", "CC50 at 3 days": "> 10"}
{"smiles": "O=C(Nc1cc(F)c(F)c(F)c1)c1cc(NC(=O)N2CCC(O)CC2)no1", "note": "[Example 9]", "CC50 at 3 days": "< 10"}
{"smiles": "Cn1cc(NC(=O)N2CCC(O)CC2)nc1C(=O)Nc1cc(F)c(F)c(F)c1", "note": "[Example 10]", "CC50 at 3 days": "> 30"}
{"smiles": "Cn1nc(NC(=O)N2CCC(O)CC2)c(Cl)c1C(=O)Nc1cc(F)c(F)c(F)c1", "note": "[Example 11]", "CC50 at 3 days": "> 30"}
{"smiles": "Cn1nc(NS(=O)(=O)N2CCC(OCc3ccccc3)CC2)cc1C(=O)Nc1cc(F)c(F)c(F)c1", "note": "[Example 12]", "CC50 at 3 days": "10 to 30"}
{"smiles": "Cn1nc(C(=O)Nc2cc(F)c(F)c(F)c2)cc1NC(=O)N1CCC(O)CC1", "note": "[Example 13]", "CC50 at 3 days": "> 10"}
{"smiles": "Cn1nc(NC(=O)C2CCC(O)CC2)cc1C(=O)Nc1cc(F)c(F)c(F)c1", "note": "(centres unmarked) [Example 14]", "CC50 at 3 days": "> 30"}
{"smiles": "Cn1nc(NC(=O)OCCO)cc1C(=O)Nc1cc(F)c(F)c(F)c1", "note": "[Example 15]", "CC50 at 3 days": "> 30"}
{"smiles": "Cn1nc(NC(=O)N2CCCCC2)cc1C(=O)Nc1cc(F)c(F)c(F)c1", "note": "[Example 16]", "CC50 at 3 days": "< 10"}
{"smiles": "Cn1nc(NC(=O)N2CCC(F)CC2)cc1C(=O)Nc1cc(F)c(F)c(F)c1", "note": "[Example 17]", "CC50 at 3 days": "< 10"}
{"smiles": "Cn1nc(NC(=O)N2CCC(F)(F)CC2)cc1C(=O)Nc1cc(F)c(F)c(F)c1", "note": "[Example 18]", "CC50 at 3 days": "> 30"}
{"smiles": "Cn1nc(NC(=O)N2CCC(C)(O)CC2)cc1C(=O)Nc1cc(F)c(F)c(F)c1", "note": "[Example 19]", "CC50 at 3 days": "> 30"}
{"smiles": "Cn1nc(NC(=O)N2CCOCC2)cc1C(=O)Nc1cc(F)c(F)c(F)c1", "note": "[Example 20]", "CC50 at 3 days": "> 30"}
{"smiles": "CN(CCO)C(=O)Nc1cc(C(=O)Nc2cc(F)c(F)c(F)c2)n(C)n1", "note": "[Example 21]", "CC50 at 3 days": "> 30"}
{"smiles": "CN(C(=O)Nc1cc(C(=O)Nc2cc(F)c(F)c(F)c2)n(C)n1)C1CC1", "note": "[Example 22]", "CC50 at 3 days": "> 30"}
{"smiles": "CN(Cc1ccccc1)C(=O)Nc1cc(C(=O)Nc2cc(F)c(F)c(F)c2)n(C)n1", "note": "[Example 23]", "CC50 at 3 days": "< 10"}
{"smiles": "COCCNC(=O)Nc1cc(C(=O)Nc2cc(F)c(F)c(F)c2)n(C)n1", "note": "[Example 24]", "CC50 at 3 days": "> 30"}
{"smiles": "CN(C)CCNC(=O)Nc1cc(C(=O)Nc2cc(F)c(F)c(F)c2)n(C)n1", "note": "[Example 25]", "CC50 at 3 days": "> 30"}
{"smiles": "Cn1nc(NC(=O)NCC2(C)CC2)cc1C(=O)Nc1cc(F)c(F)c(F)c1", "note": "[Example 26]", "CC50 at 3 days": "> 30"}
{"smiles": "Cn1nc(NC(=O)N(CCO)CCO)cc1C(=O)Nc1cc(F)c(F)c(F)c1", "note": "[Example 27]", "CC50 at 3 days": "> 30"}
{"smiles": "CN(C(=O)Nc1cc(C(=O)Nc2cc(F)c(F)c(F)c2)n(C)n1)C1CCCCC1", "note": "[Example 28]", "CC50 at 3 days": "> 30"}
{"smiles": "Cn1nc(NC(=O)N2CCC(O)C2)cc1C(=O)Nc1cc(F)c(F)c(F)c1", "note": "(centres unmarked) [Example 29]", "CC50 at 3 days": "< 10"}
{"smiles": "CCCN(C)C(=O)Nc1cc(C(=O)Nc2cc(F)c(F)c(F)c2)n(C)n1", "note": "[Example 30]", "CC50 at 3 days": "> 30"}
{"smiles": "CCCCNC(=O)Nc1cc(C(=O)Nc2cc(F)c(F)c(F)c2)n(C)n1", "note": "[Example 31]", "CC50 at 3 days": "> 30"}
{"smiles": "Cn1nc(NC(=O)NCCO)cc1C(=O)Nc1cc(F)c(F)c(F)c1", "note": "[Example 32]", "CC50 at 3 days": "10 to 30"}
{"smiles": "C=CCn1nc(NC(=O)N2CCC(O)CC2)cc1C(=O)Nc1cc(F)c(F)c(F)c1", "note": "[Example 33]", "CC50 at 3 days": "> 30"}
{"smiles": "Cn1nc(NC(=O)N2CCC(O)CC2)cc1C(=O)Nc1ccc(F)cc1", "note": "[Example 34]", "CC50 at 3 days": "> 30"}
